System: HEK293 cells
Test: Preliminary screening as mRNA vectors, EGFP mRNA transfection of HEK293 cells
Type: cell-based
Conditions: EGFP mRNA 50 ng per well, 96-well plates; percentage of GFP fluorescent cells relative to total number of cells (Hoechst)
Procedure, shortened: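 Screening format: EGFP mRNA transfection (50 ng/well) into HEK293 in 10% FBS-supplemented DMEM. Percent green fluorescent cells, normalised to Hoechst nuclear count, gave the value; Lipofectamine2000 was the reference transfectant.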

| SMILES | Absolute mRNA transfection efficiency in HEK293 cells [%] |
| --- | --- |
| CCCCCCCCCCCCN(CCCCCCCCCCCC)c1nc(NCCN2CCOCC2)nc(SCCCCCCC)n1 [D2S7^2N12] | 0.4 |
| CCCCCCCCCCCCCCCCCCSc1nc(NCC2CCN(C)CC2)nc(SCCCCCC)n1 [Compound D10S6S18] | 72.8 |
| CCCCCCCCCCCCSc1nc(NCCCCCCCC)nc(NCCN2CCN(C)CC2)n1 [Compound D5S12N8] | 22.6 |
| CCCCCCCCNc1nc(NCCCN(C)C)nc(SCCCCCC)n1 [Compound D6S6N8] | 0.4 |
| CCCCCCCCCCCCN(CCCCCCCCCCCC)c1nc(NCC2CCN(C)CC2)nc(SCCCCCCCCCCC)n1 [D10S11^2N12] | 0.0 |
| CCCCCCCCNc1nc(NCCCN2CCOCC2)nc(SCCCCCC)n1 [Compound D8S6N8] | 0.2 |
| CCCCCCCSc1nc(NCCCN2CCOCC2)nc(SCCCCCC)n1 [Compound D8S6S7] | 1.5 |
| CCCCCCCCCCCCSc1nc(NCCCCCC)nc(NCCN2CCN(C)CC2)n1 [Compound D5S12N6] | 0.3 |
| CCCCCCCCCCCCSc1nc(NCCCCCCCCCCC)nc(NCCN2CCOCC2)n1 [Compound D2S12N11] | 0.3 |
| CCCCCCCCCCCCCCCCCCNc1nc(NCCCN2CCN(C)CC2)nc(SCCCCCCCCCCCC)n1 [Compound D9S12N18] | 0.2 |
| CCCCCCCSc1nc(NCCCCCC)nc(NCCN2CCCCC2)n1 [Compound D4S7N6] | 4.5 |
| CCCCCCCCCCSc1nc(NCCCCCC)nc(NCCN2CCOCC2)n1 [Compound D2S10N6] | 0.1 |
| CCCCCCCCCCCCCCCCSc1nc(NCCCCCC)nc(NCCCN2CCOCC2)n1 [Compound D8S16N6] | 18.2 |
| CCCCCCCCCCCCCCCCCCNc1nc(NCCN2CCOCC2)nc(SCCCCCCCCC)n1 [Compound D2S9N18] | 2.4 |
| CCCCCCCCCCCSc1nc(NCCN(CC)CC)nc(SCCCCCCC)n1 [Compound D7S7S11] | 4.5 |
| CCCCCCCCCCCSc1nc(NCCCCCC)nc(NCCN2CCCCC2)n1 [Compound D4S11N6] | 2.7 |
| CCCCCCCCCCCCCCCSc1nc(NCCCCCCCCCCCCC)nc(NCCN2CCN(C)CC2)n1 [Compound D5S15N13] | 1.5 |
| CCCCCCCCCCCNc1nc(NCCN2CCCC2)nc(SCCCCCCCCCCC)n1 [Compound D3S11N11] | 33.5 |
| CCCCCCCCCCSc1nc(NCCN(C)C)nc(SCCCCCC)n1 [Compound D1S6S10] | 0.7 |
| CCCCCCCCCSc1nc(NCCCCCCC)nc(NCCN(C)C)n1 [Compound D1S9N7] | 0.3 |
| CCCCCCCCCCCCCCCCCCNc1nc(NCCCN(C)C)nc(SCCCCCCCCC)n1 [Compound D6S9N18] | 44.8 |
| CCCCCCCCCCCCN(CCCCCCCCCCCC)c1nc(NCCN(CC)CC)nc(SCCCCCCCCC)n1 [D7S9^2N12] | 0.2 |
| CCCCCCCCCCCCCCCCNc1nc(NCCN(C)C)nc(SCCCCCCCCCCCC)n1 [Compound D1S12N16] | 0.0 |
| CCCCCCCCCCCCCNc1nc(NCCN2CCN(C)CC2)nc(SCCCCCCCCCCCC)n1 [Compound D5S12N13] | 0.4 |
| CCCCCCCCCCCCNc1nc(NCCN2CCCC2)nc(SCCCCCCCC)n1 [Compound D3S8N12] | 24.6 |

| SMILES | Absolute mRNA transfection efficiency in HEK293 cells [%] |
| --- | --- |
| CCCCCCCCCCCCCCCCNc1nc(NCCN(CC)CC)nc(SCCCCCCCCCCCCCCC)n1 [Compound D7S15N16] | 0.5 |
| CCCCCCCCCCCCCCCCSc1nc(NCCCCCCCCCCCCC)nc(NCC2CCN(C)CC2)n1 [Compound D10S16N13] | 7.1 |
| CCCCCCCCCCCCCCCCCCNc1nc(NCCN(CC)CC)nc(SCCCCCCCCCCCCCCCCCC)n1 [Compound D7S18N18] | 0.0 |
| CCCCCCCCCCCSc1nc(NCCN2CCCCC2)nc(SCCCCCCC)n1 [Compound D4S7S11] | 8.0 |
| CCCCCCCCCCCSc1nc(NCCCN(C)C)nc(SCCCCCCCC)n1 [Compound D6S8S11] | 92.3 |
| CCCCCCCCCSc1nc(NCCN2CCOCC2)nc(SCCCCCC)n1 [Compound D2S6S9] | 6.3 |
| CCCCCCCCCCCCCCCCCCNc1nc(NCCN2CCOCC2)nc(SCCCCCCCCCCCCCC)n1 [Compound D2S14N18] | 0.1 |
| CCCCCCCCCCCCN(CCCCCCCCCCCC)c1nc(NCCN2CCCCC2)nc(SCCCCCC)n1 [D4S6^2N12] | 2.2 |
| CCCCCCCCCCCCCCCCSc1nc(NCCN2CCN(C)CC2)nc(N(CCCCCCCCCCCC)CCCCCCCCCCCC)n1 [D5S16^2N12] | 0.1 |
| CCCCCCCCCCCSc1nc(NCCCCCCCC)nc(NCCN2CCOCC2)n1 [Compound D2S11N8] | 2.4 |
| CCCCCCCCCSc1nc(NCCCN(C)C)nc(SCCCCCC)n1 [Compound D6S6S9] | 10.6 |
| CCCCCCCCSc1nc(NCCCCCC)nc(NCCN2CCCCC2)n1 [Compound D4S8N6] | 2.7 |
| CCCCCCCCCCCCCCCCNc1nc(NCCCN2CCN(C)CC2)nc(SCCCCCCCCCC)n1 [Compound D9S10N16] | 13.6 |
| CCCCCCCCCCSc1nc(NCCCCCC)nc(NCCN(C)C)n1 [Compound D1S10N6] | 0.4 |
| CCCCCCCCCCCCCCCCSc1nc(NCCCCCCCCCCC)nc(NCCCN2CCOCC2)n1 [Compound D8S16N11] | 3.6 |
| CCCCCCCCCSc1nc(NCCCCCC)nc(NCCN2CCOCC2)n1 [Compound D2S9N6] | 0.5 |
| CCCCCCCCCCCCCCCCCCNc1nc(NCCCN2CCOCC2)nc(SCCCCCCCCCCCC)n1 [Compound D8S12N18] | 1.1 |
| CCCCCCCCCCCCCCCNc1nc(NCC2CCN(C)CC2)nc(SCCCCCCCCC)n1 [Compound D10S9N15] | 17.5 |
| CCCCCCCCCCCSc1nc(NCCCCCC)nc(NCCCN(C)C)n1 [Compound D6S11N6] | 1.7 |
| CCCCCCCCCCCCCCCSc1nc(NCCN2CCCCC2)nc(N(CCCCCCCCCCCC)CCCCCCCCCCCC)n1 [D4S15^2N12] | 0.2 |
| CCCCCCCCCCCCCCSc1nc(NCCCCCCCC)nc(NCCN(CC)CC)n1 [Compound D7S14N8] | 10.8 |
| CCCCCCCCCCCCSc1nc(NCCCCCCC)nc(NCCN(C)C)n1 [Compound D1S12N7] | 1.5 |
| CCCCCCCCCCCSc1nc(NCCCCCCCCC)nc(NCC2CCN(C)CC2)n1 [Compound D10S11N9] | 87.7 |
| CCCCCCCCCCCCCCCCCCSc1nc(NCCCCCCCCC)nc(NCCN2CCCC2)n1 [Compound D3S18N9] | 72.3 |
